How the values were obtained:
KB 3-1 [1] = assay: Cytotoxic activity against KB 3-1 cells at 5 ug/m; Not detected.; format: functional, cell-based; settings: Homo sapiens
Plasmodium falciparum [2] = assay: Antimalarial potency against Plasmodium falciparum at 0.05 ng/mL.; format: functional
Plasmodium falciparum [3] = assay: Anti-malarial potency against Plasmodium falciparum at 0.1 ng/ml; format: functional
Plasmodium falciparum [4] = assay: Antimalarial potency against Plasmodium falciparum at 0.5 ng/mL.; format: functional
Plasmodium falciparum [5] = assay: Anti-malarial potency against Plasmodium falciparum at 5 ng/ml; format: functional
KB 3-1 [6] = assay: Cytotoxic activity against KB 3-1 cells at 5 ug/mL; Not detected.; format: functional, cell-based; settings: Homo sapiens
Plasmodium falciparum [7] = assay: Inhibitory ratio on proliferation of Plasmodium falciparum at 0.1 uM; format: functional

Structure (SMILES) | Cytotoxicity (KB 3-1 [1]) | Activity (Plasmodium falciparum [2]) | Activity (Plasmodium falciparum [3]) | Activity (Plasmodium falciparum [4]) | Activity (Plasmodium falciparum [5]) | Cytotoxicity (KB 3-1 [6]) | Inhibitory ratio (Plasmodium falciparum [7])
O=c1c(O[C@@H]2O[C@H](CO[C@@H]3OC[C@@H](O)[C@H](O)[C@H]3O)[C@H](O)[C@H](O)[C@H]2O)c(-c2ccc(O)cc2)oc2cc(O)cc(O)c12 | Not detected | 22.4% | 43.1% | 61.9% | 56.2% | – | –
O=c1c(O[C@@H]2O[C@H](CO)[C@H](O)[C@@H](O)[C@H]2O)c(-c2ccc(O)c(O)c2)oc2cc(O)cc(O)c12 | – | 31.1% | 27.7% | 31.7% | 36.8% | – | –
C[C@@H]1O[C@@H](OC[C@H]2O[C@H](Oc3c(-c4ccc(O)c(O)c4)oc4cc(O)cc(O)c4c3=O)[C@H](O)[C@H](O)[C@H]2O)[C@H](O)[C@H](O)[C@H]1O | – | 38.7% | 51.6% | 56% | 56.4% | Not detected | –
C[C@@H]1O[C@@H](OC[C@H]2O[C@@H](Oc3c(-c4ccc(O)cc4)oc4cc(O)cc(O)c4c3=O)[C@H](O[C@H]3OC[C@H](O)[C@@H](O)[C@@H]3O)[C@@H](O)[C@H]2O)[C@H](O)[C@H](O)[C@H]1O | – | 37.6% | 54.2% | 68.7% | 58.9% | Not detected | –
C[C@@H]1O[C@@H](Oc2c(-c3ccc(O)c(O)c3)oc3cc(O)cc(O)c3c2=O)[C@H](O)[C@H](O)[C@H]1O [QUERCITRIN] | – | 34% | 39.4% | 36% | 32.9% | – | –
C[C@@H]1O[C@@H](Oc2c(-c3ccc(O)c(O)c3)oc3cc(O)cc(O)c3c2=O)[C@H](O)[C@H](O)[C@H]1O[C@@H]1O[C@H](CO)[C@H](O)[C@@H](O)[C@H]1O | – | 25% | 32.8% | 43.4% | 48.1% | – | –
COc1cc(-c2oc3cc(O)cc(O)c3c(=O)c2O[C@H]2O[C@H](CO[C@@H]3O[C@@H](C)[C@H](O)[C@@H](O)[C@H]3O)[C@H](O)[C@@H](O)[C@H]2O)ccc1O | – | 10.8% | 24.5% | 44.5% | 41.5% | – | –
C[C@@H]1O[C@@H](OC[C@H]2O[C@H](Oc3c(-c4ccc(O)cc4)oc4cc(O)cc(O)c4c3=O)[C@H](O)[C@H](O)[C@H]2O)[C@H](O)[C@H](O)[C@H]1O | – | 30.5% | 49.1% | 60.1% | 50.9% | – | –
C=C[C@H]1CN2CC[C@H]1C[C@H]2[C@H](O)c1ccnc2ccc(OC)cc12 [QUININE] | – | – | – | – | – | – | 45.3
CC(=O)OC[C@H]1O[C@@H](O[C@@H]2[C@@H](O)[C@@H](O)[C@H](Oc3c(-c4ccc(O)c(O)c4)oc4cc(O)cc(O)c4c3=O)O[C@H]2C)[C@H](O)[C@H](O)[C@H]1O | – | 27.4% | 40.3% | 52.1% | 65.4% | Not detected | –
